Assay results taken from article PMC5733700 (Bioorganic & medicinal chemistry, 2017).

What was measured:
[1] = biological target: BRD2-BD1 (74–194) (Homo sapiens, UniProt P25440); assay: Isothermal titration calorimetry; assay type: binding; details: 15 °C, no DMSO in buffer
[2] = biological target: BRD2-BD2 (348–455) (Homo sapiens, UniProt P25440); assay: Isothermal titration calorimetry; assay type: binding; details: 15 °C, no DMSO in buffer
[3] = test system: HEPG2 cells; assay: Non-specific cytotoxicity, HEPG2 control cell line; assay type: cell-based; details: control hepatocarcinoma cell line; 3 days exposure
[4] = test system: BJ cells; assay: Non-specific cytotoxicity, BJ control cell line; assay type: cell-based; details: control immortalized fibroblast cell line; 3 days exposure
[5] = test system: HEK293 cells; assay: Non-specific cytotoxicity, HEK293 control cell line; assay type: cell-based; details: control embryonic kidney cell line; 3 days exposure

Chain of BRD2-BD2 (348–455) (P25440 348-455): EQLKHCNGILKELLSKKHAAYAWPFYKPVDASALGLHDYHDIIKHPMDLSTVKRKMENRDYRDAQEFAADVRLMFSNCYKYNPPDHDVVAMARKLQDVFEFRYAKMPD
Chain of BRD2-BD1 (74–194) (P25440 74-194): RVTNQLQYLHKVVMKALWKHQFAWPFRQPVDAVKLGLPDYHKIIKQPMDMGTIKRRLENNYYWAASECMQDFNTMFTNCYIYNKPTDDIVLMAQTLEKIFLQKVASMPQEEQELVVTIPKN

Row | SMILES | ITC ΔH, BRD2 BD1 [1] | ITC −TΔS, BRD2 BD1 [1] | ITC ΔH, BRD2 BD2 [2] | ITC −TΔS, BRD2 BD2 [2] | Cytotoxicity EC50, HEPG2 [3] | ITC ΔG, BRD2 BD1 [1] | Cytotoxicity EC50, BJ [4] | Cytotoxicity EC50, HEK293 [5] | ITC ΔG, BRD2 BD2 [2]
1 | Cc1sc2c(c1C)C(c1ccc(Cl)cc1)=N[C@@H](CC(=O)OC(C)(C)C)c1nnc(C)n1-2 [Compound 1, (+)-JQ1, reference compound] | -4.9 kcal/mol | -4.39 kcal/mol | -1.47 kcal/mol | -7.83 kcal/mol | – | – | – | – | –
2 | CC(=O)N1c2ccc(-c3ccco3)cc2[C@H](NC(=O)OC(C)C)C[C@@H]1C [Compound 9, Isopropyl ((2S,4R)-1-acetyl-6-(furan-2-yl)-2-methyl-1,2,3,4-tetrahydroquinolin-4-yl)carbamate] | -7.27 kcal/mol | -0.2 kcal/mol | – | – | did not exhibit cytotoxicity at the highest concentrations tested | -7.47 kcal/mol | did not exhibit cytotoxicity at the highest concentrations tested | did not exhibit cytotoxicity at the highest concentrations tested | –
3 | CC(=O)N1c2ccc(-c3cccs3)cc2[C@H](NC(=O)OC(C)C)C[C@@H]1C [Compound 10, Isopropyl ((2S,4R)-1-acetyl-2-methyl-6-(thiophen-2-yl)-1,2,3,4-tetrahydroquinolin-4-yl)carbamate] | -8.27 kcal/mol | -1.25 kcal/mol | -7.18 kcal/mol | -2.94 kcal/mol | – | -9.52 kcal/mol | – | – | -10.12 kcal/mol
4 | CC(=O)N1c2ccc(-c3ccc[nH]3)cc2[C@H](NC(=O)OC(C)C)C[C@@H]1C [Compound 11, Isopropyl ((2S,4R)-1-acetyl-2-methyl-6-(1H-pyrrol-2-yl)-1,2,3,4-tetrahydroquinolin-4-yl)carbamate] | -6.9 kcal/mol | -2.18 kcal/mol | -6.89 kcal/mol | -2.92 kcal/mol | – | -9.08 kcal/mol | – | – | -9.82 kcal/mol
5 | CC(=O)N1c2ccc(-c3ccoc3)cc2[C@H](NC(=O)OC(C)C)C[C@@H]1C [Compound 12, Isopropyl ((2S,4R)-1-acetyl-6-(furan-3-yl)-2-methyl-1,2,3,4-tetrahydroquinolin-4-yl)carbamate] | -9.9 kcal/mol | 0.94 kcal/mol | -6.31 kcal/mol | -2.29 kcal/mol | – | -8.96 kcal/mol | – | – | -8.61 kcal/mol
6 | CC(=O)N1c2ccc(-c3ccsc3)cc2[C@H](NC(=O)OC(C)C)C[C@@H]1C [Compound 13, Isopropyl ((2S,4R)-1-acetyl-2-methyl-6-(thiophen-3-yl)-1,2,3,4-tetrahydroquinolin-4-yl)carbamate] | -7.69 kcal/mol | -1.74 kcal/mol | -6.92 kcal/mol | -3.33 kcal/mol | – | -9.43 kcal/mol | – | – | -10.25 kcal/mol
7 | CC(=O)N1c2ccc(-c3cc[nH]c3)cc2[C@H](NC(=O)OC(C)C)C[C@@H]1C [Compound 14, Isopropyl ((2S,4R)-1-acetyl-2-methyl-6-(1H-pyrrol-3-yl)-1,2,3,4-tetrahydroquinolin-4-yl)carbamate] | -7.33 kcal/mol | -1.95 kcal/mol | -7.01 kcal/mol | -3.32 kcal/mol | – | -9.28 kcal/mol | – | – | -10.15 kcal/mol
